Measurements published in PMC9304322, “Targeting retinoic acid receptor alpha-corepressor interaction activates chaperone-mediated autophagy and protects against retinal degeneration” (Nature Communications, 2022).
Where “and” joins values, the source holds several entries; their conditions need not be identical. Identical values can stand only once. Like-named read-outs stand apart in the source and are kept apart here.

Columns and labels:
[1] = Pharmacokinetic analysis, plasma and brain;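 for Fig. 3a level, MEAN: plasma concentration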;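 for Fig. 3a level, single animals 1-3: plasma concentration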;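 for Fig. 3b level, MEAN: brain concentration in ng/g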;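 for Fig. 3b level, single animals 1-3: brain concentration in ng/g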; assay type: in vivo, ICR (CD-1) male mice; set-up: Fig. 3a level, single animals 1-3 / Fig. 3a level, MEAN / Fig. 3b level, single animals 1-3 / Fig. 3b level, MEAN: unit not given here; conditions: for Kp at 0.083 h / Kp at 0.25 h / Kp at 0.5 h / Kp at 1 h / Kp at 2 h / Kp at 4 h / Kp at 8 h / half-life: male, ICR (CD-1), mouse; for half-life: mice
Experimental: ICR (CD-1) male mice were fasted at least three hours and water was available ad libitum before the study. Animals were housed in a controlled environment, target conditions: temperature 18 to 29 °C, relative humidity 30 to 70%. Temperature and relative humidity was monitored daily. An electronic time-controlled lighting system was used to provide a 12 h light/12 h dark cycle. 3 mice for each indicated time point were administered 30 mg/Kg CA39 or CA77 by oral gavage or 1 mg/Kg CA39 or CA77 by intravenous injection using 30% PEG-400, 65% D5W (5% dextrose in water), 5% Tween-80 vehicle. Mice were sacrificed, and brain samples were harvested at […], 0.25 h, 0.5 h, 1 h, 2 h, 4 h, 8 h, 24 h, and analyzed for CA39 or CA77 levels using LC-MS/MS. Pharmacokinetics parameters were calculated using Phoenix WinNonlin 6.3. Experiments performed at SIMM-SERVIER joint Biopharmacy Laboratory.

[2] = In vitro solubility by nephelometry; assay type: physicochemical; conditions: in words
Experimental: In vitro solubility in the following conditions A) HBSS/HEPES 10 mM/BSA 0.1% pH 6 B) HBSS/HEPES 10 mM/BSA 0.1% pH 7.4 C) TRIS/BSA 0.1% PBS (pH 7.4 and at indicated doses were measured by Nephelometry using the NEPHELOstar Galaxy apparatus (BMG Lab Technologies). In vitro stability in human, mouse and rat liver microsomes and permeability using a bidirectional permeability assay with CaCo-2 cells (pH 6.5/7.4) assays were performed with standard methodology and analyzed by LC-MS/MS. at SIMM-SERVIER joint Biopharmacy Laboratory. ADME properties for CA39 and CA77 were predicted by QikProp (Schrödinger, LLC, Releases 2016-2020) software.

SMILES: CC(=O)Nc1ccc(C2=Nc3ccc(Cl)cc3OC2)cc1 [CA77]
- Fig. 3a level, MEAN ([1]; IV, Time 0.25 h): 30.2
- Fig. 3a level, single animals 1-3 ([1]; IV, Time 0.25 h): 27.2 and 43.9 and 19.5
- Fig. 3b level, MEAN ([1]; IV, Time 0.25 h): 3653.67
- Fig. 3b level, single animals 1-3 ([1]; IV, Time 0.25 h): 3391 and 5173 and 2397
- Fig. 3a level, MEAN ([1]; IV, Time 0.5 h): 17.9
- Fig. 3a level, single animals 1-3 ([1]; IV, Time 0.5 h): 17.2 and 14.6 and 21.9
- Fig. 3b level, MEAN ([1]; IV, Time 0.5 h): 2647.67
- Fig. 3b level, single animals 1-3 ([1]; IV, Time 0.5 h): 2198 and 2795 and 2950
- Fig. 3a level, MEAN ([1]; IV, Time 1 h): 17.4333
- Fig. 3a level, single animals 1-3 ([1]; IV, Time 1 h): 15.5 and 21.5 and 15.3
- Fig. 3b level, MEAN ([1]; IV, Time 1 h): 2521.11
- Fig. 3b level, single animals 1-3 ([1]; IV, Time 1 h): 2758.39 and 2650.88 and 2154.07
- Fig. 3a level, MEAN ([1]; IV, Time 2 h): 4.363
- Fig. 3a level, single animals 1-3 ([1]; IV, Time 2 h): 7.54 and 1.71 and 3.84
- Fig. 3b level, MEAN ([1]; IV, Time 2 h): 658.667
- Fig. 3b level, single animals 1-3 ([1]; IV, Time 2 h): 773 and 411 and 792
- Fig. 3a level, MEAN ([1]; IV, Time 4 h): 0.3767
- Fig. 3a level, single animals 1-3 ([1]; IV, Time 4 h): BLQ and 0.597 and 0.533
- Fig. 3b level, MEAN ([1]; IV, Time 4 h): 104
- Fig. 3b level, single animals 1-3 ([1]; IV, Time 4 h): 76 and 112 and 124
- Fig. 3a level, MEAN ([1]; IV, Time 8 h): 0
- Fig. 3a level, single animals 1-3 ([1]; IV, Time 8 h): BLQ
- Fig. 3b level, MEAN ([1]; IV, Time 8 h): 25.5467
- Fig. 3b level, single animals 1-3 ([1]; IV, Time 8 h): 7.74 and 27.5 and 41.4
- Fig. 3a level, MEAN ([1]; IV, Time 24 h): 0
- Fig. 3a level, single animals 1-3 ([1]; IV, Time 24 h): BLQ
- Fig. 3b level, MEAN ([1]; IV, Time 24 h): 3
- Fig. 3b level, single animals 1-3 ([1]; IV, Time 24 h): 2.68 and 4.25 and 2.07
- B/P, Brian/Plasma ([1]; P.O., Time 0.25 h, individual animals): 60.8033 and 75.265
- B/P, Brian/Plasma ([1]; P.O., Time 0.5 h, individual animals): 154.065 and 93.9339
- B/P, Brian/Plasma ([1]; P.O., Time 1 h, individual animals): 105.807 and 124.313
- B/P, Brian/Plasma ([1]; P.O., Time 2 h, individual animals): 113.451 and 103.8
- B/P, Brian/Plasma ([1]; P.O., Time 4 h, individual animals): 108.623 and 135.516
- B/P, Brian/Plasma ([1]; P.O., Time 8 h, individual animals): 133.365 and 145.604
- Fig. 3b level, MEAN ([1]; PO, Time 0.25 h): 9743
- Fig. 3b level, single animals 1-3 ([1]; PO, Time 0.25 h): 7893 and 7279 and 14057
- Fig. 3b level, MEAN ([1]; PO, Time 0.5 h): 16210.7
- Fig. 3b level, single animals 1-3 ([1]; PO, Time 0.5 h): 13095 and 20145 and 15392
- Fig. 3b level, MEAN ([1]; PO, Time 1 h): 30964
- Fig. 3b level, single animals 1-3 ([1]; PO, Time 1 h): 31243 and 27952 and 33697
- Fig. 3a level, MEAN ([1]; PO, Time 2 h): 278
- Fig. 3a level, single animals 1-3 ([1]; PO, Time 2 h): 318 and 259 and 257
- Fig. 3b level, MEAN ([1]; PO, Time 2 h): 29203.3
- Fig. 3b level, single animals 1-3 ([1]; PO, Time 2 h): 31592 and 29359 and 26659
- Fig. 3a level, MEAN ([1]; PO, Time 4 h): 203.667
- Fig. 3a level, single animals 1-3 ([1]; PO, Time 4 h): 163 and 258 and 190
- Fig. 3b level, MEAN ([1]; PO, Time 4 h): 24280.3
- Fig. 3b level, single animals 1-3 ([1]; PO, Time 4 h): 19042 and 28003 and 25796
- Fig. 3a level, MEAN ([1]; PO, Time 8 h): 44.4333
- Fig. 3a level, single animals 1-3 ([1]; PO, Time 8 h): 55.2 and 45.3 and 32.8
- Fig. 3b level, MEAN ([1]; PO, Time 8 h): 5756
- Fig. 3b level, single animals 1-3 ([1]; PO, Time 8 h): 6451 and 6039 and 4778
- Fig. 3a level, MEAN ([1]; PO, Time 24 h): 0
- Fig. 3a level, single animals 1-3 ([1]; PO, Time 24 h): 0
- Fig. 3b level, MEAN ([1]; PO, Time 24 h): 10.0733
- Fig. 3b level, single animals 1-3 ([1]; PO, Time 24 h): 18.9 and 6.07 and 5.25
- B/P, Brian/Plasma ([1]; i.v., Time 0.083 h, individual animals): 71.1336 and 48.9012
- B/P, Brian/Plasma ([1]; i.v., Time 0.25 h, individual animals): 117.877 and 123.138
- B/P, Brian/Plasma ([1]; i.v., Time 0.5 h, individual animals): 191.891 and 134.551
- B/P, Brian/Plasma ([1]; i.v., Time 1 h, individual animals): 123.104 and 140.908
- B/P, Brian/Plasma ([1]; i.v., Time 2 h, individual animals): 102.433 and 239.982 and 206.167
- B/P, Brian/Plasma ([1]; i.v., Time 4 h, individual animals): 232.498
- Kp at 0.083 h ([1]; brain, iv, 1 mg/Kg, i.v., Time 0.083 h, individual animals, read-out: B/P, Brian/Plasma): 71.3
- Kp at 0.083 h ([1]; brain, iv, 1 mg/Kg, i.v., Time 0.083 h, mean, read-out: B/P, Brian/Plasma, Mean): 71.2
- Kp at 0.25 h ([1]; brain, iv, 1 mg/Kg, i.v., Time 0.25 h, individual animals, read-out: B/P, Brian/Plasma): 125
- Kp at 0.25 h ([1]; brain, iv, 1 mg/Kg, i.v., Time 0.25 h, mean, read-out: B/P, Brian/Plasma, Mean): 122
- Kp at 0.5 h ([1]; brain, iv, 1 mg/Kg, i.v., Time 0.5 h, individual animals, read-out: B/P, Brian/Plasma): 128
- Kp at 0.5 h ([1]; brain, iv, 1 mg/Kg, i.v., Time 0.5 h, mean, read-out: B/P, Brian/Plasma, Mean): 151
- Kp at 1 h ([1]; brain, iv, 1 mg/Kg, i.v., Time 1 h, individual animals, read-out: B/P, Brian/Plasma): 178
- Kp at 1 h ([1]; brain, iv, 1 mg/Kg, i.v., Time 1 h, mean, read-out: B/P, Brian/Plasma, Mean): 159
- Kp at 2 h ([1]; brain, iv, 1 mg/Kg, i.v., Time 2 h, mean, read-out: B/P, Brian/Plasma, Mean): 183
- Kp at 4 h ([1]; brain, iv, 1 mg/Kg, i.v., Time 4 h, individual animals, read-out: B/P, Brian/Plasma): 188
- Kp at 4 h ([1]; brain, iv, 1 mg/Kg, i.v., Time 4 h, mean, read-out: B/P, Brian/Plasma, Mean): 210
- Kp at 0.25 h ([1]; brain, po, 30 mg/Kg, P.O., Time 0.25 h, individual animals, read-out: B/P, Brian/Plasma): 64.5
- Kp at 0.25 h ([1]; brain, po, 30 mg/Kg, P.O., Time 0.25 h, mean, read-out: B/P, Brian/Plasma, Mean): 66.9
- Kp at 0.5 h ([1]; brain, po, 30 mg/Kg, P.O., Time 0.5 h, individual animals, read-out: B/P, Brian/Plasma): 122
- Kp at 0.5 h ([1]; brain, po, 30 mg/Kg, P.O., Time 0.5 h, mean, read-out: B/P, Brian/Plasma, Mean): 123
- Kp at 1 h ([1]; brain, po, 30 mg/Kg, P.O., Time 1 h, individual animals, read-out: B/P, Brian/Plasma): 125
- Kp at 1 h ([1]; brain, po, 30 mg/Kg, P.O., Time 1 h, mean, read-out: B/P, Brian/Plasma, Mean): 118
- Kp at 2 h ([1]; brain, po, 30 mg/Kg, P.O., Time 2 h, individual animals, read-out: B/P, Brian/Plasma): 99.4
- Kp at 2 h ([1]; brain, po, 30 mg/Kg, P.O., Time 2 h, mean, read-out: B/P, Brian/Plasma, Mean): 106
- Kp at 4 h ([1]; brain, po, 30 mg/Kg, P.O., Time 4 h, individual animals, read-out: B/P, Brian/Plasma): 117
- Kp at 4 h ([1]; brain, po, 30 mg/Kg, P.O., Time 4 h, mean, read-out: B/P, Brian/Plasma, Mean): 120
- Kp at 8 h ([1]; brain, po, 30 mg/Kg, P.O., Time 8 h, individual animals, read-out: B/P, Brian/Plasma): 117
- Kp at 8 h ([1]; brain, po, 30 mg/Kg, P.O., Time 8 h, mean, read-out: B/P, Brian/Plasma, Mean): 132
- half-life ([1]; brain, IV 1 mg/kg, read-out: Half-life in brain (converted)): 108 min
- half-life ([1]; brain, PO 30 mg/kg, read-out: Half-life in brain (converted)): 252 min
- half-life ([1]; plasma, IV 1 mg/kg, read-out: Half-life in plasma (converted)): 36 min
- half-life ([1]; plasma, PO 30 mg/kg, read-out: Half-life in plasma (converted)): 132 min
- solubility [2]: reasonable
